Assay results from patent US20240261267A1, “METHODS FOR TREATING MULTIPLE SCLEROSIS” (Vanda Pharmaceuticals Inc., priority 2021, published 2024).

Test system: primary mouse OPCs
Experiment: differentiation assay, immunocytochemical staining for O4 and MBP
Type: cell-based
Details: for MBP expression / O4 expression: normalized to DAPI and negative control
Procedure: The effects of ponesimod, a selective S1P1 receptor agonist, and A971432, a selective S1P5 receptor agonist, on oligodendrocyte precursor cell (OPC) migration and differentiation were evaluated. Nine concentrations were tested (logarithmic dilutions ranging from 0.3 nM to 3000 nM, n=6 per concentration). Fingolimod phosphate (P-FTY720, 3000 nM, n=6) was included as a positive control, 0.1% DMSO was included (min.one/plate) as a negative control. Primary mouse OPCs were harvested on postnatal day 0 or 1 and mixed glia cultures were maintained for 14 days. Primary OPCs were then purified using the shake-off method, and used for either a migration assay, or a differentiation assay, as detailed below. To harvest primary mouse OPCs, cortices are isolated from mouse pups on postnatal day 0 or 1 and placed in ice-cold Dulbecco's Modified Eagle Medium (DMEM) (Sigma Aldrich, Overijse, BE). The cortices are homogenized and centrifuged for 5 minutes at 300 G. The supernatant is removed, and a papain solution is added for 30 minutes (125 uL DMEM solution per brain containing 20 units/ml papain and 40 μg/ml DNase, at 37 degrees). Digestion is inactivated by adding 9 ml cold DMEM. The solution is then centrifuged for 5 minutes at […]. The supernatant is carefully removed, and the pellet is resuspended in 2-5 ml culture medium (DMEM with 10% fetal calf serum (Biowest, Nuaillé, FR) and 1% pen/strep (Sigma Aldrich, Overijse, BE)). […] Cell suspension is divided over PLL (Sigma Aldrich, Overijse, BE)-coated flasks (2 brains per flask) and DMEM is added to a final volume of 10 ml. DMEM is replaced on day 4, 7, and 11. On day 7 and 11, insulin (Sigma Aldrich, Overijse, BE) is added to the medium (5μg/ml). On day 14, OPCs are separated from astrocytes by the shake-off method: flasks are placed on a shaker for 45 minutes at 75 rpm (37 degrees). The medium is then aspirated and discarded, and 10 ml fresh culture medium is added. Flasks are then returned to the shaker for 16-18 hours shaking at 280 rpm. Next, the medium is isolated, and this cell suspension is placed in a plastic petri dish and incubated for 25 minutes. The medium, which contains the OPCs, is then collected and centrifuged for 5 minutes at 300 G. Cells are then resuspended in SATO differentiation medium containing 2% horse serum, 2% B-27, 50 U/ml P/S, 2.4 μl/ml transferrin, 1.04 μl/ml L-thyroxine, 1 μl/ml putrescin, 1 μl/ml progesterone, 1 μl/ml TIT, 0.74 μl/ml sodium selenite and 0.5 μl/ml insulin (all from Sigma-Aldrich, Overijse, BE). […] After shake-off, cells are reset for their differentiation status: one hour after plating, cells are treated with platelet-derived growth factor (PDGF, 10 ng/ml, Peprotech EC Ltd, London, UK) and fibroblast growth factor (fgf, 10 ng/ml, Peprotech EC Ltd, London, UK). Twenty-four hours after plating, cells are treated again with fgf (10 ng/ml). 150,000 cells are plated onto glass coverslips in 24-well plates. […] Aspecific binding was blocked for 30 minutes with 1% bovine serum albumin (BSA) in 0.1% PBS-T, followed by incubation with primary antibodies (O4:R&D systems, Minneapolis, USA, MBP:Merck, Overijse, BE) for four hours at room temperature. After three washing steps with PBS (Lonza group, Bornem, BE), cells are incubated with Invitrogen Alexa Fluor 488 (Alexa 488) or Invitrogen Alexa Fluor 555 (Alexa 555) conjugated secondary antibody for one hour (Life technologies, Carlsbad, USA). […] Sigma-Aldrich, Overijse, […]). Coverslips are mounted with Dako mounting medium (Dako, Carpinteria, USA) and analyzed using a fluorescence microscope (Leica DM2000 LED). Images are quantified using Fiji, ImageJ software. Ponesimod and […] effect on primary mouse OPC differentiation using immunocytochemical staining for O4 and MBP, markers of early and late differentiation stages, respectively, was measured. Fingolimod phosphate, which served as a positive control in the migration assay, was included as well, 0.1% DMSO was included as a negative control. […]

| SMILES | MBP expression (1000 nM) | O4 expression (1000 nM) | O4 expression (3000 nM) | OPC differentiation (staining for O4 and MBP) (high concentration 1000 nM) | MBP expression (300 nM) | O4 expression (300 nM) | OPC differentiation (staining for O4 and MBP) (high concentrations 300 nM-1000 nM) |
| --- | --- | --- | --- | --- | --- | --- | --- |
| O=C(O)C1CN(Cc2ccc(OCc3ccc(Cl)c(Cl)c3)cc2)C1 [A97] | significant increase | marginally increased | marginally increased | modest increases |  |  |  |
| CCC/N=C1\S/C(=C\c2ccc(OC[C@H](O)CO)c(Cl)c2)C(=O)N1c1ccccc1C [ponesimod, (R)-5-[3-chloro-4-(2,3-dihydroxy-propoxy)-benz[Z]ylidene]-2-([Z]-propylimino)-3-o-tolyl-thiazolidin-4-one] | did not show significantly increased MBP expression | marginally increased |  |  | significant increase | did not show significantly increased O4 expression | Enhanced OPC differentiation |
